These results are taken from patent US12180193B2, “Accelerating fibrosarcoma protein degrading compounds and associated methods of use” (Arvinas Operations, Inc., priority 2020, dated 2024).

One test has as its target T1, BRAF V600E (Homo sapiens, UniProt P15056, V600E).
T1 construct: expressed in transfected cells
In words: Cellular assay of target protein degradation, T-Rex 293 cells stably transfected with HA-BRAF_V600E (HA immunofluorescence, high content imaging). The format is cell-based. To be noted: T-Rex 293 HA-BRAF V600E; for DC50: half maximal degradation, read-out: BRaf V600E DC50; for Dmax: maximum degradation observed. On the procedure: Protocol for a cellular assay of target protein degradation (T-Rex 293 cells). T-Rex 293 cells were purchased from Invitrogen (#R71007), and stably transfected with a pcDNA4/TO_HA-BRAF_V600E construct, using 400 ug Zeocin for selection. V600e cells are plated in Dulbecco's Modified Eagle Medium (DMEM; Gibco #11965118) containing 10% fetal bovine serum (FBS; Gibco #16000044) and 1 ng/mL doxycycline (Selleckchem #4163) at a density of 5,000 cells/well in 50 μl on poly-D-lysine (PDL) coated, black clear bottom 96-well plates (Corning #354640) and incubated for 24 hours at 37° C. with 5% C02. The following day 50 ul of tested compound was added at 2x concentration in DMEM with a final concentration ranging from 1 μM to 0.1 nM in 0.1% dimethylsulfoxide (DMSO), and incubated for 24 hours at 37° C. with 5% CO2. At the end of the experimental treatment, the media was flicked off and cells washed once with phosphate-buffered saline (PBS)++ (PBS with CaCl and MgCl) and gently replacing with 200 μl PBS++ per well. The PBS++ was removed and 50 uL 4% paraformaldehyde (PFA; EMS #15710) in PBS++ was added, and incubate at room temperature for 15 minutes. Cells were washed once with PBS++ and 50 uL 0.1% Triton X-100 (Fisher #BP151-500) in PBS++ was added. Plate was incubate for 5 minutes at room temperature. Cells were was once with PBS++. Cells were blocked with 100 uL Licor blocking buffer (Licor #927-50000) for 1 hour at room temperature. Next, 50 uL of HA antibody (CST #3724) at 1:1000 in Licor blocking buffer was added, and the plate incubate overnight at 4° C. The plates were parafilmed to prevent evaporation. Plate was washed three times with 200 uL PBS++. Fifty microliters of HCS secondary antibody solution [1:1000 Hoechst (Invitrogen #H3570), 1:1000 phalloidin (Invitrogen #A22287) and 1:5000 Alexa fluor (Invitrogen #A11008)] was added and incubated for 1 hour. Plate was wash three times with 200 uL PBS++, and imaged on a high content reader (ImageXpress Micro XLS, Molecular Devices).
(§1) The concentration of exemplary compound that leads to half maximal degradation (DC50) as well as the maximum degradation observed (Dmax, conventionally expressed as a percentage of control), which are below in Table 2 for the exemplary compounds of Table 1.

The target in the next test is T2, BRAF G466V (Homo sapiens, UniProt P15056, G466V).
T2 construct: expressed in transfected cells
T2 sequence (P15056 whole entry G466V): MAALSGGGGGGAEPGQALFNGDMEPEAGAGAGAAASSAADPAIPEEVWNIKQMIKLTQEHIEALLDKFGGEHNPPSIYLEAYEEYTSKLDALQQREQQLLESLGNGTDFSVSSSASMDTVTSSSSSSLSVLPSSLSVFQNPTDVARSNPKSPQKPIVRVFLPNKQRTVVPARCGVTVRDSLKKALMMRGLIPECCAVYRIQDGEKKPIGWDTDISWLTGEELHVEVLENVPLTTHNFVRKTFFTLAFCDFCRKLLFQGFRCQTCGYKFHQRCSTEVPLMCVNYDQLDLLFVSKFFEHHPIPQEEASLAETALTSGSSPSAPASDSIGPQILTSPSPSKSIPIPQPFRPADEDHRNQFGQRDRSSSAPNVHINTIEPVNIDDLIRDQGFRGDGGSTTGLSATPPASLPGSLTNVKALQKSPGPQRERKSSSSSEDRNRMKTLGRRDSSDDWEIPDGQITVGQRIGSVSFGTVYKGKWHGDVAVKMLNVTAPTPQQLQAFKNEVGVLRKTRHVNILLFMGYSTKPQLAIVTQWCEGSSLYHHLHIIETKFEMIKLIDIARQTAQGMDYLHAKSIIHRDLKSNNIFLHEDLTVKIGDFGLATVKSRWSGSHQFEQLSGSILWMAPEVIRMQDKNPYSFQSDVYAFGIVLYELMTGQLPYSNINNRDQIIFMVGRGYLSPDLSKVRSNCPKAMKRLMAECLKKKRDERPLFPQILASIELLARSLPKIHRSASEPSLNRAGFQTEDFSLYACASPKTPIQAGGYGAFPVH
The test is described as follows: Cellular assay of target protein degradation, T-Rex 293 cells stably transfected with HA-BRAF G466V (HA immunofluorescence, high content imaging). The format is cell-based. Particulars: T-Rex 293 HA-BRAF G466V; for DC50: half maximal degradation, read-out: BRaf G466V DC50; for Dmax: maximum degradation observed. The procedure: Protocol for a cellular assay of target protein degradation (T-Rex 293 cells). T-Rex 293 cells were purchased from Invitrogen (#R71007), and stably transfected with a pcDNA4/TO_HA-BRAF G466V construct, using 400 ug Zeocin for selection. G466V cells are plated in Dulbecco's Modified Eagle Medium (DMEM; Gibco #11965118) containing 10% fetal bovine serum (FBS; Gibco #16000044) and 0.75 ng/mL doxycycline (Selleckchem #4163) at a density of 5,000 cells/well in 50 μl on poly-D-lysine (PDL) coated, black clear bottom 96-well plates (Corning #354640) and incubated for 24 hours at 37° C. with 5% CO2. The following day 50 ul of tested compound was added at 2x concentration in DMEM with a final concentration ranging from 30 nM to 3 pM in 0.1% dimethylsulfoxide (DMSO), and incubated for 24 hours at 37° C. with 5% CO2. At the end of the experimental treatment, the media was flicked off and cells washed once with phosphate-buffered saline (PBS)++ (PBS with CaCl and MgCl) and gently replacing with 200 μl PBS++ per well. The PBS++ was removed and 50 uL 4% paraformaldehyde (PFA; EMS #15710) in PBS++ was added, and incubate at room temperature for 15 minutes. Cells were washed once with PBS++ and 50 uL 0.1% Triton X-100 (Fisher #BP151-500) in PBS++ was added. Plate was incubate for 5 minutes at room temperature. Cells were was once with PBS++. Cells were blocked with 100 uL Licor blocking buffer (Licor #927-50000) for 1 hour at room temperature. Next, 50 uL of HA antibody (CST #3724) at 1:1000 in Licor blocking buffer was added, and the plate incubate overnight at 4° C. The plates were parafilmed to prevent evaporation. Plate was washed three times with 200 uL PBS++. Fifty microliters of HCS secondary antibody solution [1:1000 Hoechst (Invitrogen #H3570), 1:1000 phalloidin (Invitrogen #A22287) and 1:5000 Alexa fluor (Invitrogen #A11008)] was added and incubated for 1 hour. Plate was wash three times with 200 uL PBS++, and imaged on a high content reader (ImageXpress Micro XLS, Molecular Devices).
as §1

T1 sequence (P15056 whole entry V600E): as the sequence (P15056 whole entry G466V) above, with V466G, V600E counted along it

The DC50 is the midpoint of the concentration-degradation curve. By Dmax is commonly meant the largest share of the target that was removed. `COc1cc([C@@H](O)CCN2CCN(c3ccc(-c4cnc5[nH]cc(C(=O)c6c(F)ccc(NS(=O)(=O)N7CC[C@@H](F)C7)c6F)c5c4)cc3)CC2)cc2c1C(=O)N([C@H]1CCC(=O)NC1=O)C2` (stereo in doubt) [Compound 295, (3R)-N-{3-[5-(4-{4-[(3S)-3-{2-[(3S)-2,6-dioxopiperidin-3-yl]-7-methoxy-1-oxo-2,3-dihydro-1H-isoindol-5-yl}-3-hydroxypropyl]piperazin-1-yl}phenyl)-1-pyrrolo[2,3-b]pyridine-3-carbonyl]-2,4-difluorophenyl}-3-fluoropyrrolidine-1-sulfonamide]: the DC50 on BRAF V600E was 50 to 500 nM; on BRAF G466V, 1 to 10 nM. Moreover, the Dmax at BRAF V600E and at BRAF G466V was 35 to 70% each time.
In the case of `O=C1CCC(N2Cc3cc(N4CC5(CC(Oc6ccc(-c7cnc8[nH]cc(C(=O)c9c(F)ccc(NS(=O)(=O)N%10CC[C@@H](F)C%10)c9F)c8c7)cc6)C5)C4)ccc3C2=O)C(=O)N1` (stereo partly drawn) [Compound 1, (3R)-N-(3-{5-[4-({2-[2-(2,6-dioxopiperidin-3-yl)-1-oxo-2,3-dihydro-1H-isoindol-5-yl]-2-azaspiro[3.3]heptan-6-yl}oxy)phenyl]-1H-pyrrolo[2,3-b]pyridine-3-carbonyl}-2,4-difluorophenyl)-3-fluoropyrrolidine-1-sulfonamide], at BRAF V600E, the DC50 is 5 to 50 nM and the maximal degradation (Dmax) was in the range of 35 to 70%. Further, on BRAF G466V, the DC50 lay in the range of 1 to 10 nM and the Dmax fell in the range of 35 to 70%.
For the compound `C[C@@]12CN(CC3CCN(c4ccc5c(c4)CN(C4CCC(=O)NC4=O)C5=O)CC3)C[C@]1(C)CN(c1ccc(-c3cnc4[nH]cc(C(=O)c5c(F)ccc(NS(=O)(=O)N6CC[C@@H](F)C6)c5F)c4c3)cc1)C2` (stereo partly drawn) [Compound 2, (3R)-N-[3-(5-{4-[(3aR,6aS)-5-({1-[2-(2,6-dioxopiperidin-3-yl)-1-oxo-2,3-dihydro-1H-isoindol-5-yl]piperidin-4-yl}methyl)-3a,6a-dimethyl-octahydropyrrolo[3,4-c]pyrrol-2-yl]phenyl}-1H-pyrrolo[2,3-b]pyridine-3-carbonyl)-2,4-difluorophenyl]-3-fluoropyrrolidine-1-sulfonamide], the DC50 at BRAF V600E was 5 to 50 nM; on BRAF G466V, 10 to 30 nM. Further, the Dmax at BRAF V600E and on BRAF G466V was 35 to 70% throughout.
For the compound `O=C1CCC(N2Cc3cc(N4CCC(CN5C[C@H]6CCN(c7ccc(-c8cnc9[nH]cc(C(=O)c%10c(F)ccc(NS(=O)(=O)N%11CC[C@@H](F)C%11)c%10F)c9c8)cc7)C[C@H]6C5)CC4)ccc3C2=O)C(=O)N1` (stereo partly drawn) [Compound 3, (3R)-N-[3-(5-{4-[(3aR,7aS)-2-({1-[2-(2,6-dioxopiperidin-3-yl)-1-oxo-2,3-dihydro-1H-isoindol-5-yl)piperidin-4-yl}methyl)-octahydro-1H-pyrrolo[3,4-c]pyridin-5-yl]phenyl}-1H-pyrrolo[2,3-b]pyridine-3-carbonyl)-2,4-difluorophenyl]-3-fluoropyrrolidine-1-sulfonamide], on BRAF V600E, the DC50 lay in the range of 5 to 50 nM and the Dmax lay in the range of 35 to 70%. Further, on BRAF G466V, the DC50 was 1 to 10 nM and the Dmax was over 70%.
Take `O=C1CCC(N2Cc3cc(N4CC5(CCN(CC#Cc6ccc(-c7cnc8[nH]cc(C(=O)c9c(F)ccc(NS(=O)(=O)N%10CC[C@@H](F)C%10)c9F)c8c7)cc6)C5)C4)ccc3C2=O)C(=O)N1` (stereo partly drawn) [Compound 4, (3R)-N-(3-{5-[4-(3-{2-[2-(2,6-dioxopiperidin-3-yl)-1-oxo-2,3-dihydro-1H-isoindol-5-yl]-2,6-diazaspiro[3.4]octan-6-yl}prop-1-yn-1-yl)phenyl]-1H-pyrrolo [2,3-b]pyridine-3-carbonyl}-2,4-difluorophenyl)-3-fluoropyrrolidine-1-sulfonamide]: the values for the DC50 on BRAF V600E and on BRAF G466V were 50 to 500 nM and 1 to 10 nM, respectively. For the same compound, the maximal degradation (Dmax) is under 35% on BRAF V600E and 35 to 70% at BRAF G466V.
For `O=C1CCC(N2Cc3cc(N4CC(N5C[C@H]6C[C@@H]5CN6c5ccc(-c6cnc7[nH]cc(C(=O)c8c(F)ccc(NS(=O)(=O)N9CC[C@@H](F)C9)c8F)c7c6)cc5)C4)ccc3C2=O)C(=O)N1` (stereo partly drawn) [Compound 5, (3R)-N-[3-(5-{4-[(1R,4R)-5-{1-[2-(2,6-dioxopiperidin-3-yl)-1-oxo-2,3-dihydro-1H-isoindol-5-yl]azetidin-3-yl}-2,5-diazabicyclo[2.2.1]heptan-2-yl]phenyl}-1H-pyrrolo[2,3-b]pyridine-3-carbonyl)-2,4-difluorophenyl]-3-fluoropyrrolidine-1-sulfonamide], the DC50 on BRAF V600E is over 500 nM; on BRAF G466V, 1 to 10 nM. Further, the Dmax at BRAF G466V was in the range of 35 to 70%.
In the case of `COc1cc(N2CCC(CN3CCC4(CC3)CCN(c3ccc(-c5cnc6[nH]cc(C(=O)c7c(F)ccc(NS(=O)(=O)N8CC[C@@H](F)C8)c7F)c6c5)cc3)CC4)CC2)cc2c1C(=O)N(C1CCC(=O)NC1=O)C2` (stereo partly drawn) [Compound 6, (3R)-N-[3-(5-{4-[9-({1-[2-(2,6-dioxopiperidin-3-yl)-7-methoxy-1-oxo-2,3-dihydro-1H-isoindol-5-yl]piperidin-4-yl}methyl)-3,9-diazaspiro[5.5]undecan-3-yl]phenyl}-1H-pyrrolo[2,3-b]pyridine-3-carbonyl)-2,4-difluorophenyl]-3-fluoropyrrolidine-1-sulfonamide], at BRAF V600E, the DC50 is under 5 nM and the Dmax was in the range of 35 to 70%. Moreover, on BRAF G466V, the DC50 was in the range of 1 to 10 nM and the Dmax fell in the range of 35 to 70%.
For the compound `O=C1CCC(N2Cc3cc(N4CC(CN5CCC(c6ccc(-c7cnc8[nH]cc(C(=O)c9c(F)ccc(NS(=O)(=O)N%10CC[C@@H](F)C%10)c9F)c8c7)cc6)CC5)C4)ccc3C2=O)C(=O)N1` (stereo partly drawn) [Compound 7, (3R)-N-[3-(5-{4-[1-({1-[2-(2,6-dioxopiperidin-3-yl)-1-oxo-2,3-dihydro-1H-isoindol-5-yl]azetidin-3-yl}methyl)piperidin-4-yl]phenyl}-1H-pyrrolo[2,3-b]pyridine-3-carbonyl)-2,4-difluorophenyl]-3-fluoropyrrolidine-1-sulfonamide], at BRAF V600E, the DC50 was in the range of 5 to 50 nM and the Dmax lay in the range of 35 to 70%. For the same compound, at BRAF G466V, the DC50 was in the range of 1 to 10 nM and the Dmax is over 70%.
Regarding `O=C1CCC(N2Cc3cc(N4CCC(CN5CCC6(CCN(c7ncc(-c8cnc9[nH]cc(C(=O)c%10c(F)ccc(NS(=O)(=O)N%11CC[C@@H](F)C%11)c%10F)c9c8)cn7)CC6)C5)CC4)ccc3C2=O)C(=O)N1` (stereo partly drawn) [Compound 96, (3R)-N-[3-(5-{2-[2-({1-[2-(2,6-dioxopiperidin-3-yl)-1-oxo-2,3-dihydro-1H-isoindol-5-yl]piperidin-4-yl}methyl)-2,8-diazaspiro[4.5]decan-8-yl]pyrimidin-5-yl}-1H-pyrrolo[2,3-b]pyridine-3-carbonyl)-2,4-difluorophenyl]-3-fluoropyrrolidine-1-sulfonamide], on BRAF V600E, the DC50 is under 5 nM and the greatest degradation seen (Dmax) is under 35%.
